Experimental data published in US20100081632A1, “High-content and high throughput assays for identification of lipid-regulating pathways, and novel therapeutic agents for lipid disorders” (Odyssey Thera, Inc., priority 2008, published 2010).

Legend:
[1] = system: PCSK9/LDLR complex; experiment: PCSK9/LDLR protein complementation assay (PCA) in transfected HEK293 cells; format: cell-based, human
Experimental: In one of the embodiments of the invention, the cell-based assay consists of transfected cDNAs encoding full-length PCSK9 and LDL receptor, each sequence linked in-frame to rationally designed fragments of a variant of green fluorescent protein. These two plasmid constructs were co-expressed in human HEK cells plated in 384-well poly-lysine coated plates. After 24-48 hours of incubation, drugs (or vehicle controls) were added to the media, and the existence and localization of PCSK9/LDL receptor complexes was quantified on an Opera automated confocal fluorescence microscopy platform (Perkin Elmer). Images were subjected to automated image analysis, and results quantified and subjected to statistical analysis.
HEK 293T cells were seeded in normal growth media containing DMEM and 10% FBS at 1.5×10^4 in PDL-coated 96-well plates 24 hours prior to transfection. Cells were transfected with 50 ng of each construct DNA per well with Fugene 6, using conditions recommended by the manufacturer. Cells were allowed to express the construct pairs for 24- or 48 h, then the cells were simultaneously fixed and stained with either a 1:300 dilution of Hoescht 33342 (Molecular Probes, Eugene, Oreg.) or a 1:1000 dilution of Draq5 (Biostatus, Shepshed, Leicestershire, U.K.) in 4% formaldehyde for 15 minutes at room temperature. The cells were washed to remove fixative, and overlaid with a small volume of Hank's Buffered Salt Solution. Images were acquired on a Discovery-1 (Molecular Devices) epifluorescence microscope using the 20× objective, and DAPI and FITC filter sets. (with excitation at 350 and 488 nm wave lengths) or on an Opera (Perkin Elmer) confocal microscope using the 20× water objective with the following excitation and emission settings: Ex 488 nm/Em 535 nm (YFP) and Ex 635 nm/Em 640 nm (Draq5).
To test for in vitro PCSK9 function and activity, we developed a protein complementation assay (PCA) with PCSK9-IFP2 and the LDL-IFP1 receptor (PCSK9/LDLR). Expression of wild type PCSK9-IFP2 in transfected HEK293 cells was confirmed by Western blot using an antibody against YFP (FIG. 2). Cotranfection of HEK cells with increasing ratios of PCSK9-IFP2 and LDLR-IFP1 DNA constructs results in increased PCA signal (FIG. 3) but not when each construct is expressed alone. The intracellular localization of the wild-type PCSK9-IFP2/LDLR-IFP1 PCA interaction is similar to the known localization of wild type PCSK9 in the endoplasmic reticulum (ER) and post-ER compartments in various cell types (20, 21). The PCA signal for the PCSK9-IFP2/LDLR-IFP1 pair appears to be localized to multiple intracellular trafficking sites including the ER, endosomes and the cell surface.
In order to test the viability of using the PCSK9-IFP2/LDLR-IFP1 PCA as a drug discovery tool, we tested a drug plate containing 50 known drugs at 3 doses in the assay (Table 10) as well as several protein kinase inhibitors (representative compounds are depicted in Table 11). […] We observed the following effects of known compounds on the PCSK9/LDLR complex:
A collection of small molecular weight compounds was screened. […] To expand on this observation, we characterized the effects of a larger panel of kinase inhibitors on the PCSK9/LDLr complex. 47 compounds representing a broad range of known receptor tyrosine and serine-threonine kinase inhibitors were assessed (table 2). A subset was identified that had inhibitory effects on the PCSK9/LDLr complex (degree of assay inhibition relative to control is indicated by “% control”, Table 2).

[2] = system: HepG2 cells; experiment: LDL uptake in HepG2 cells (human LDL conjugated to DyLight 549); format: cell-based; settings: for effect on LDL uptake (in words): HepG2, 10 μM; for x-fold increase (hepatic LDL uptake): HepG2; for % Control (Table 5, titled LDL uptake in Hepg2 cells): values repeat Table 2
From the text: The assay uses human LDL conjugated to DyLight™ 549 as a fluorescent probe for detection of LDL uptake into HepG2 cells.
We assessED whether compounds that inhibit the PCSK9/LDLr assay would have activity on LDL uptake and metabolism in a relevant cell type. PCSK9 is thought to be a negative regulator of LDLr. Thus, we predicted that compounds inhibiting the PCSK9 PCA signal would increase LDL receptor expression and LDL uptake. An assay using human LDL conjugated to DyLight™ 549 as a fluorescent probe for detection of LDL uptake into cultured human hepatocytes. A separate assay, using an LDL receptor-specific polyclonal antibody and a DyLight™ 488-conjugated secondary antibody, was also performed to localize LDL receptors
Quantitation of the increased LDL uptake of these and other kinase inhibitors targeting Akt, mTOR, p38, GSK3 and VEGF is shown in Table 4.

Compound	% Control (PCSK9/LDLr PCA) ([1]; dose 10 μM)	effect on LDL uptake (in words) [2]	x-fold increase (LDL uptake in Hepg2 cells) ([2]; dose 3 μM)	x-fold increase (LDL uptake in Hepg2 cells) ([2]; dose 10 μM)	x-fold increase (hepatic LDL uptake) ([2]; dose 10 µM)	% Control (Table 5, titled LDL uptake in Hepg2 cells) ([2]; dose 10 μM)	x-fold increase (hepatic LDL uptake) ([2]; dose 3 µM)	% Control (PCSK9/LDLr PCA) ([1]; dose 3 μM)	also measured
Cc1ccc(NC(=O)c2ccc(CN3CCN(C)CC3)cc2)cc1Nc1nccc(-c2cccnc2)n1 [Imatinib]	55%	dramatic increase in LDL uptake	2.4 x-fold	5.4 x-fold	5.4 x-fold	55%	2.4 x-fold	–	effect on formation of PCSK9/LDLR complexes / PCA signal (in words) [1]: inhibit the formation of PCSK9/LDLR complexes
CCOc1cc2ncc(C#N)c(Nc3ccc(OCc4ccccn4)c(Cl)c3)c2cc1NC(=O)/C=C/CN(C)C [Neratinib]	–	dramatic increase in LDL uptake	–	2.2 x-fold	2.2 x-fold	–	–	61%	% Control (PCSK9/LDLr PCA) ([1]; dose 1 μM): 64%
Cc1ccc([N+](=O)[O-])cc1S(=O)(=O)N(C)/N=C/c1cnc2ccc(Br)cn12 [PI 3-Kalpha Inhibitor VIII, N-((1E)-(6-Bromoimidazo[1,2-a]pyridin-3-yl)methylene)-Nprime-methyl-Ndoubleprime-(2-methyl-5-nitrobenzene)sulfonohydrazide]	29%	–	–	–	–	–	–	39%	% Control (PCSK9/LDLr PCA) ([1]; dose 1 μM): 44%; % Control (Table 5, titled LDL uptake in Hepg2 cells) ([2]; dose 1 μM): 44%; % Control (Table 5, titled LDL uptake in Hepg2 cells) ([2]; dose 3 μM): 39%
CC(C)[C@H](CO)Nc1nc(Nc2cccc(Cl)c2)c2ncn(C(C)C)c2n1 [Purvalanol A]	–	–	–	–	–	–	–	–	% Control (PCSK9/LDLr PCA) ([1]; dose 15 μM): 52%; % Control (Table 5, titled LDL uptake in Hepg2 cells) ([2]; dose 15 μM): 52%
CNC(=O)c1cc(Oc2ccc(NC(=O)Nc3ccc(Cl)c(C(F)(F)F)c3)cc2)ccn1 [Sorafenib]	58%	–	–	–	–	58%	–	57%	% Control (Table 5, titled LDL uptake in Hepg2 cells) ([2]; dose 3 μM): 57%
COc1cc2ncnc(Nc3ccc(Oc4ccccc4)cc3)c2cc1OC [Src Kinase Inhibitor I, 4-(4-prime-Phenoxyanilino)-6,7-dimethoxyquinazoline]	–	dramatic increase in LDL uptake	2.3 x-fold	5.1 x-fold	5.1 x-fold	–	2.3 x-fold	–	% Control (PCSK9/LDLr PCA) ([1]; dose 12.5 μM): 50%; % Control (Table 5, titled LDL uptake in Hepg2 cells) ([2]; dose 12.5 μM): 50%
COc1cc2c(Nc3ccc(Br)cc3F)ncnc2cc1OCC1CCN(C)CC1 [Vandetanib]	–	–	2.0 x-fold	–	–	–	2.0 x-fold	–	% Control (PCSK9/LDLr PCA) ([1]; dose 100 μM): 39%; x-fold increase (LDL uptake in Hepg2 cells) ([2]; dose 1 μM): 1.5 x-fold; x-fold increase (hepatic LDL uptake) ([2]; dose 1 µM): 1.5 x-fold
COC[C@H]1OC(=O)c2coc3c2[C@@]1(C)C1=C(C3=O)[C@@H]2CCC(=O)[C@@]2(C)C[C@H]1OC(C)=O [Wortmannin]	–	–	–	–	–	–	–	–	% Control (PCSK9/LDLr PCA) ([1]; dose 1.5 μM): 63%
CO[C@H]1C[C@@H]2CC[C@@H](C)[C@@](O)(O2)C(=O)C(=O)N2CCCC[C@H]2C(=O)O[C@H]([C@H](C)C[C@@H]2CC[C@H](n3cnnn3)[C@H](OC)C2)CC(=O)[C@H](C)/C=C(\C)[C@@H](O)[C@@H](OC)C(=O)[C@H](C)C[C@H](C)/C=C/C=C/C=C/1C [Zotarolimus]	37%	–	–	–	–	–	–	–	–
Indirubin-3′-Monoxime	64%	–	–	–	–	64%	–	–	–
